Test results from US5969138A, “Pyrrolidinone derivatives” (Mitsui Chemicals, Inc., priority 1996, dated 1999).

What was measured:
[1] = system: reverse tolerance development to methamphetamine (stereotyped behavior); test: Effect on reverse tolerance development due to repetitive administration of methamphetamine; type: in vivo, rat (male Std:Wistar(ST)); details: rat
Method: Evaluation Example 6 (Effect to reverse tolerance development due to repetitive administration of methamphetamine) For the experiment, male Std:Wistar(ST) rat (Nippon SLC) aged 5 weeks were used. A test drug, the compound of formula (IV) described in JP-A 7-252219 or the compound of formula (V) described in JP-A 9-40667 was dissolved in purified water or 0.5% C.M.C./saline. Methamphetamine (mAMP) was dissolved in saline. Dosage volume was 1 mL/kg body weight.
The drugs were repetitively administered for 10 days with a regimen that to a rat, a test drug was orally or intraperitoneally administered and after 60 min mAMP was intraperitoneally administered in a dose of 2 mg/kg. To a normal group, solvent alone was administered in place of the combination of the test drug and mAMP. To a control group, solvent was orally or intraperitoneally administered, and then intraperitoneally mAMP was additionally administered.
After the repetitive administration, there was provided a withdrawal period for 7 days during which the test drug or mAMP was not administered. After the withdrawal, the test drug was discontinued and mAMP was administered in a dose of 2 mg/kg, and then stereotyped behavior of the animal was observed.
After administering mAMP, stereotyped behavior was rated in accordance with the following scale, for 1 min every 10 min until 60 min.
The results are expressed as an inhibition (%) of reverse tolerance development calculated from the following equation, using a total score for six minutes: Inhibition of reverse tolerance development (%)=100-A […]
wherein A represents a value calculated from the following equation:
A=[{(Score for the test drug group)-(Score for the normal group)}/{(Score for the control group)-(Score for the normal group)}]×100

Blood kinetics = type: in vivo, dog (male beagle); details: 10 mg/kg, plasma; for Cmax / half-life: beagle dog; for Cmax: HPLC; for bioavailability: dog, po, read-out: Extent of Bioavailability; for half-life: estimated from intravenous administration
Method: Evaluation Example 7 (Blood kinetics)
For the experiment, male beagle dogs were employed. A test drug was intravenously or orally administered in a dose of 10 mg/kg. Blood samples were collected at 0.25, 0.5, 1, 2, 4, 6 and 24 hours after administering the test drug, and the samples were centrifuged to separate plasma, for which a plasma level of the test drug was determined by HPLC. Half-life of the test drug in blood was estimated from the results at the intravenous administration. An extent of bioavailability is expressed as a rate of AUC at the oral administration to AUC at the intravenous administration.

[2] = system: head weaving behavior induced by a receptor agonist SKF-10047; test: Persistence of anti-SKF effect (SKF-10047 4 hours after test drug); type: in vivo, mouse (male ddY); details: mouse, oral, SKF-10047 20 mg/kg s.c. 4 hours after test drug
Method: Evaluation Example 5 (Persistence of anti-SKF effect) Procedure
(§1) Persistence of antipsychotic activity for a test drug was studied by means of head weaving behavior induced by a receptor agonist SKF-10047 for a mouse. For the experiment were used 10 male ddY mice aged 5 weeks (Nippon SLC) per a group. The mice were placed in a measuring cage and calmed 1 hour before the initiation of the test. To the mice was orally administered a test drug and after 4 hours was subcutaneously administered SKF-10047 in a dose of 20 mg/kg. After 20 min, head weaving was counted for 10 min.

[3] = Safety: simple acute toxicity for a mouse; type: in vivo
Method: Evaluation Example 8 (Safety)
For the experiment, male Std:ddY mice aged 5 weeks were used. The mice were weighed, and then calmed in an observation cage for more than 1 hour. To the mice, a test drug was orally administered in a dose of 300 mg/kg to observe them for general symptoms until 2 hours.

[4] = system: head weaving behavior induced by phencyclidine (PCP); test: Anti-PCP effect: inhibition of phencyclidine-induced head weaving; type: in vivo, rat (male Wistar(ST)); details: oral treatment before 60 min, PCP 7.5 mg/kg i.p.; for ED50: Rattus norvegicus, po, 1 h; for ED50 Anti-PCP: rat, 60 min
Method: Evaluation Example 4 (Anti-PCP effect)
Antipsychotic activity for a test drug was studied by means of head weaving behavior induced by phencyclidine (PCP) for a rat. For the experiment were used male Wistar(ST) rats aged 4weeks (Nippon SLC). The rats were placed in a measuring cage and calmed 1 hour before the initiation of the test. To the rats was orally administered a test drug and after 60 min was intraperitoneally administered PCP in a dose of 7.5 mg/kg. After 20 min, head weaving was counted for 10 min. Efficacy of the drug was evaluated by determining an inhibition (%) compared with the control group from the average of the scores of the test-drug groups, and then estimating a ED50 value.

[5] = system: head weaving behavior induced by a σ-receptor agonist SKF-10047; test: Anti-SKF effect: inhibition of SKF-10047-induced head weaving; type: in vivo, mouse (male ddY); details: 1 h; mouse, oral treatment before 60 min; SKF-10047 20 mg/kg s.c.
Method: Evaluation Example 3 (Anti-SKF effect)
as §1, with “Antipsychotic” for “Persistence of antipsychotic”, “σ-receptor” for “receptor”, “60 min” for “4 hours”

sigma receptor = details: background; cited from earlier work
D2 receptor = target: T1, D2 receptor (Rattus norvegicus, UniProt P61169); test: Radioreceptor assay for D2 receptor (3H-spiperone, cerebral striatal homogenate); type: binding; details: read-out: Affinity for a receptor, Ki D2
T1 construct: from tissue; host or cells: rat cerebral striatal homogenate
Method: Evaluation Example 2 (Radioreceptor assay for D2 receptor) ^3 H-spiperone (Amersham) and a test drug were incubated with a homogenate of rat cerebral striatal site as described in D. R. Burt et al., Proc.Natl.Acad.Sci.U.S.A. 72:4655 (1975), and Ki value was determined as described in the above r radioreceptor assay.

σ1 receptor = target: T2, σ1 receptor (Cavia porcellus, UniProt Q60492); test: Radioreceptor assay for a σ1 receptor (3H-(+)pentazocine binding, whole brain P2 fraction); details: guinea pig brain P2 fraction, 3 nM 3H-(+)pentazocine, room temperature, 2 hours; read-out: Affinity for a receptor, Ki σ1
T2 construct: prepared from a whole brain of a guinea pig without cerebellum and medulla; from tissue; host or cells: P2 fraction of guinea pig whole brain without cerebellum and medulla

[6] = 300 mg/kg oral, observed until 2 hours

T2 sequence (Q60492 whole entry): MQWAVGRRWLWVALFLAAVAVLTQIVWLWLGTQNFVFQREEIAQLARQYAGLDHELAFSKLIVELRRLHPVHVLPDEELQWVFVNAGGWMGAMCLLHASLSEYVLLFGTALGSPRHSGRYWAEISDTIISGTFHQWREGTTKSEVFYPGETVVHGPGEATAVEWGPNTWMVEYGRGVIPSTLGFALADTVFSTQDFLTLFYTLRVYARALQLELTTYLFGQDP
T1 sequence (P61169 whole entry): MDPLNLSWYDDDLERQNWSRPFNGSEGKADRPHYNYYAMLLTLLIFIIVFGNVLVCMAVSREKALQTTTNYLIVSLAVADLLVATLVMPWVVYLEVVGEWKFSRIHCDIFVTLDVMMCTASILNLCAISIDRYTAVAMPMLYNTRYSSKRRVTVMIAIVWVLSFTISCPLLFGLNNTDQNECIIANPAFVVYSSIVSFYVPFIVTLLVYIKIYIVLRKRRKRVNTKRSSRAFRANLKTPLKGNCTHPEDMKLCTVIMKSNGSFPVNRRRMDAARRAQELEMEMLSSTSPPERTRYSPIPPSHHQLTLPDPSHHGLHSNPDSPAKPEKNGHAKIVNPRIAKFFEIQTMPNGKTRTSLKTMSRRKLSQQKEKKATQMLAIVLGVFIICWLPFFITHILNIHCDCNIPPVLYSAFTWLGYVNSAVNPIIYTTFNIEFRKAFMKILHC

COC1CCN(C[C@H]2CCN(c3ccc(Cl)cc3)C2=O)CC1 [Compd. of formula (V), reference compound]
Inhibition of reverse tolerance ([1]; 10.0 mg/kg intraperitoneal): 81.7%
Inhibition of reverse tolerance ([1]; 30.0 mg/kg intraperitoneal): 87.8%
Cmax (Blood kinetics): 460 ng/mL
bioavailability (Blood kinetics): 64.3%
half-life (Blood kinetics): 1.5 h
ED50 [2]: 23.2 mg/kg
Convulsion/Treatment [3, 6]: 1/3
Death/Treatment [3, 6]: 0/3

CCCCN1CCN(CC2CCN(c3cccc(C(F)(F)F)c3)C2=O)CC1 (stereo not shown) [Compound of formula (IV), reference compound]
Inhibition of reverse tolerance ([1]; 30.0 mg/kg intraperitoneal): 92.9%
ED50 [4]: 11 mg/kg
ED50 [2]: > 100 mg/kg
Convulsion/Treatment [3, 6]: 5/5
Death/Treatment [3, 6]: 5/5
ED50 [5]: 14 mg/kg

C[C@@H]1CN(CCCn2c3ccccc3c3ccccc32)C[C@H](C)N1 [Rimcazole, reference compound]
affinity or specificity to a sigma receptor (sigma receptor): inadequate affinity or specificity to a sigma receptor
Ki (D2 receptor): 11600 nM

COCCN1CCN(CC2CCN(c3ccc(Cl)cc3)C2=O)CC1 (stereo not shown) [compound 2]
ED50 [4]: 1.3 mg/kg
Ki (D2 receptor): > 3300 nM
Ki (σ1 receptor): 85 nM
Convulsion/Treatment [3, 6]: 0/6
Death/Treatment ([3]; in vivo, po, 300 mg/kg): 0/6
ED50 [5]: 2.1 mg/kg

CCOCCN1CCN(CC2CCN(c3ccc(Cl)cc3)C2=O)CC1 (stereo not shown) [compound 8]
Ki (D2 receptor): > 3300 nM
Ki (σ1 receptor): 14 nM
Convulsion/Treatment [3, 6]: 0/3
Death/Treatment ([3]; in vivo, po, 300 mg/kg): 0/3

C#CCOCCN1CCN(CC2CCN(c3ccc(Cl)cc3)C2=O)CC1 (stereo not shown) [compound 10]
Ki (D2 receptor): > 3300 nM
Ki (σ1 receptor): 10 nM

COCCN1CCN(CC2CCN(c3ccc(Br)cc3)C2=O)CC1 (stereo not shown) [compound 16]
ED50 [4]: 1.9 mg/kg
Convulsion/Treatment [3, 6]: 0/5
Death/Treatment ([3]; in vivo, po, 300 mg/kg): 0/5
ED50 [5]: 0.52 mg/kg

COCCN1CCN(CC2CCN(c3cccc(Br)c3)C2=O)CC1 (stereo not shown) [compound 18]
Ki (D2 receptor): > 2800 nM
Ki (σ1 receptor): 7.5 nM

COCCN1CCN(C[C@H]2CCN(c3ccc(Cl)cc3)C2=O)CC1 [compound 21]
Inhibition of reverse tolerance ([1]; 7.5 mg/kg oral): 81.0%
Inhibition of reverse tolerance ([1]; 15.0 mg/kg oral): 93.9%
Cmax (Blood kinetics): 1520 ng/mL
bioavailability (Blood kinetics): 83.1%
half-life (Blood kinetics): 3.5 h
ED50 [4]: 0.75 mg/kg
Ki (D2 receptor): > 3900 nM
ED50 [2]: 3.19 mg/kg
Ki (σ1 receptor): 72 nM
Convulsion/Treatment [3, 6]: 0/4
Death/Treatment [3, 6]: 0/4
ED50 [5]: 0.77 mg/kg

COCCN1CCN(C[C@H]2CCN(c3ccc(Cl)cc3)C2=O)CC1 [compound 37]
ED50 Anti-PCP [4]: 1.15 mg/kg

COCCN1CCN(C[C@H]2CCN(c3ccc(Cl)cc3)C2=O)CC1 [compound 38]
ED50 Anti-PCP [4]: 1.48 mg/kg

COCCN1CCN(C[C@H]2CCN(c3ccc(Cl)cc3)C2=O)CC1 [compound 39]
ED50 Anti-PCP [4]: 1.08 mg/kg
